Test results reported in ChEMBL document CHEMBL5365449, “Permeation behavior of porphyrin derivatives with different functional group positions across cancer cell membranes” (Bioorg Med Chem Lett, 2023).

Experiments:
[1] = Drug accumulation of the compound in human MCF7 cells assessed as accumulation at 4 degC by fluorescence microscopy; type: ADME, cell-based
[2] = Drug accumulation of the compound in human MCF7 cells assessed as accumulation at mitochondria by fluorescence microscopy; type: ADME
[3] = Drug accumulation of the compound in human MCF7 cells assessed as accumulation at lysosome by fluorescence microscopy; type: ADME, subcellular
[4] = Drug uptake in human MCF7 cells assessed as increase in internalization by measuring fold increase of fluorescence intensity in the presence of LDL by fluorescence spectrum analysis; type: ADME, cell-based

Row | Drug uptake [1] | Drug uptake [2] | Drug uptake [3] | fold change (FC) [4] | SMILES
1 | 3.7 10^-2microM | Active | Active | 6 | O=C(Nc1ccc(-c2c3nc(c(-c4ccccc4)c4ccc([nH]4)c(-c4ccccc4)c4nc(c(-c5ccccc5)c5ccc2[nH]5)C=C4)C=C3)cc1)c1ccccc1
2 | 7.5 10^-2microM | Active | Active | 12 | O=C(NC1=Cc2nc1c(-c1ccccc1)c1ccc([nH]1)c(-c1ccccc1)c1nc(c(-c3ccccc3)c3ccc([nH]3)c2-c2ccccc2)C=C1)c1ccccc1
